These results are taken from paper PMC7926923, “Identification of Active Site Residues of the Siderophore Synthesis Enzyme PvdF and Evidence for Interaction of PvdF with a Substrate-Providing Enzyme” (International Journal of Molecular Sciences, 2021).

For assay [1], the target named is T1, PvdF (Pseudomonas aeruginosa, UniProt Q9I184).
T1 construct: recombinant from E. coli BL21(DE3), His6 tag kept at N-terminus (His6PvdF, pET-DUET1; also all variants) or C-terminus (PvdFHis6, pET21a); IMAC and SEC; monomer
T1 sequence (Q9I184 entry or part of it): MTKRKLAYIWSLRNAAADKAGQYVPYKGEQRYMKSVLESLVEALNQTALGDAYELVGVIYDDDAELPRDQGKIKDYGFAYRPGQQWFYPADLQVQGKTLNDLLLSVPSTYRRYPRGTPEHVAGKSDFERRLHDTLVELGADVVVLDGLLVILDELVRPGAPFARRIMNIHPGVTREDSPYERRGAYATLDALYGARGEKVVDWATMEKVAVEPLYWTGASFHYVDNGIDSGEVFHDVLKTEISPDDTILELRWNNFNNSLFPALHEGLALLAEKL
The experiment in a line: direct injection mass spectrometry of fOHOrn product. To be noted: 25 uM PvdF, 1 mM OHOrn, 1.5 mM fTHF, 10 mM HEPES pH 8.0, 30 C, 3 h. It counts as biochemical.

In assay [2] the target is T1, PvdF. The experiment in a line: differential scanning fluorimetry, SYPRO Orange. The assay is classed as binding. To be noted: 10 uM protein, 1.5 mM fTHF, 10 mM HEPES pH 8.0; site not determined; also co-substrate in the activity assay.

In the case of `N[C@@H](CCCNO)C(=O)O` [L-OHOrn], the “direct injection mass spectrometry of fOHOrn product” value at PvdF [1] is given as “able to convert OHOrn to fOHOrn with fTHF as the co-substrate”. As for `Nc1nc2c(c(=O)[nH]1)N[C@@H](CN(C=O)c1ccc(C(=O)N[C@@H](CCC(=O)O)C(=O)O)cc1)CN2` [N^10-formyltetrahydrofolate], the thermal shift result on PvdF [2] is reported as “addition of fTHF resulted in a significant change in fluorescence of wild-type PvdF”.
